{
  "source": "patent US9399681B2",
  "about": "“Amatoxin-conjugates with improved linkers” (Heldelberg Pharma GmbH, priority 2010, dated 2016)",
  "origin": "cited, not measured here",
  "biological_target": "DNA-dependent RNA polymerase II of mammalian cells (Homo sapiens, UniProt P24928)",
  "settings": "background statement, non-covalent complex; read-out: KD of the complex between amanitin and RNA-polymerase II",
  "data": [
    {"substance": "amanitin", "values": [
      {"measurement": "Kd", "value": 3, "unit": "nM"}
    ]}
  ]
}
